Measurements published in patent publication US20170073445A1, “PHOTOPOLYMERIZABLE COMPOSITION, PHOTOPOLYMERIZABLE INK, COMPOSITION CONTAINER, IMAGE OR CURED PRODUCT FORMING METHOD, IMAGE OR CURED PRODUCT FORMING DEVICE, AND IMAGE OF CURED PRODUCT” (priority 2014, published 2017).

What was measured:
[1] = Viscosity by cone-plate rotor viscometer (25° C. or 60° C.); assay type: physicochemical; settings: monomer per se
Description: Note that, a viscosity of the low viscous monofunctional monomer per se is preferably 3 mPa·s or less at 25° C., more preferably about 1 mPa·s or less at 25° C. The viscosity can be measured by means of a cone-plate rotor viscometer, VISCOMETER TV-22, manufactured by Toki Sangyo Co., Ltd., using a corn rotor (1° 34′×R24) at the rotational speed of 50 rpm, with setting the temperature of constant-temperature circulating water to 25° C.
The viscosity is measured by means of a cone-plate rotor viscometer, VISCOMETER TV-22, manufactured by Toki Sangyo Co., Ltd., using a corn rotor (1° 34′×R24) at the rotational speed of 50 rpm, with setting the temperature of constant-temperature circulating water to 25° C. or 60° C. As for the adjustment of the temperature of the circulating water, VISCOMATE VM-150III is used. […]
(A): t-butylmethacrylate, “Acryester TB” manufactured by MITSUBISHI RAYON CO., LTD. (negative), evaluated with the literature (test method: maximization method, viscosity at 25° C.: 0.9 mPa·s). The viscosity was measured by means of a cone-plate rotor viscometer, VISCOMETER TV-22, manufactured by Toki Sangyo Co., Ltd., using a corn rotor (1° 34′×R24) at the rotational speed of 50 rpm, with setting the temperature of constant-temperature circulating water to 25° C.

female mice = assay: Skin sensitization test, local lymph node assay (LLNA), SI value; assay type: in vivo; settings: test substance 50.0 w/v % in acetone:olive oil 4:1, applied to both auricles once a day for three days
Description: (1) A compound having a Stimulation Index (SI value) of less than 3, where the Stimulation Index indicates the level of sensitization as measured by a skin sensitization test based on the LLNA (Local Lymph Node Assay).
Regarding the above (1), the compound having a SI value of less than 3 is considered as being negative for skin sensitization as described in literatures, for example, “Functional Material” (Kino Zairyou) September, 2005, Vol. 25, No. 9, p. 55. The lower Si value means lower skin sensitization. In the present invention, therefore, a photopolymerizable monomer having lower SI value is preferably used. The SI value is preferably less than 3, more preferably 2 or less, and even more preferably 1.6 or less.
According to the skin sensitization test of local lymph node assay (LLNA), the SI value was measured in the following manner. […]
Based on the body weights measured 2 days before the initiation of sensitization, they were categorized into 2 groups (4 mice/group) by the body weight stratified random sampling method so that the body weight of each individual was within plus or minus 20%. […]
About 24 hours after the administration of BrdU, the used animals were allowed to undergo euthanasia, and their auricular lymph nodes were sampled. […] Also, the average of the weights of the auricular lymph nodes and the standard error thereof were calculated for each group. […]

[2] = in vivo; cited from earlier work

| Molecule | viscosity at 25° C. [1] | SI value (Stimulation Index) in the LLNA test (female mice) | other results |
| --- | --- | --- | --- |
| C=C(C)C(=O)OCCCCC [n-pentyl methacrylate] | 1 mPa·s |  |  |
| tricyclodecane dimethanol dimethacrylate |  | 1.3 |  |
| C=C(C)C(=O)OCC(CO)OC(=O)C(=C)C (centres unmarked) [glycerol dimethacrylate] |  | 1.2 |  |
| O=C(c1ccccc1)C1(O)CCCCC1 [1-hydroxy-cyclohexylphenylketone] |  |  | Skin sensitization, evaluated with MSDS [2]: no |
| C=C(C)C(=O)OC(C)(C)C [t-butylmethacrylate] | 0.9 mPa·s |  |  |
